The text below walks through data of PubChem BioAssay AID1774 (Sanford-Burnham Center for Chemical Genomics, 2009).

Activity calls are given as the source filed them. How the calls were made is not given here.

The assay deals with MDA-MB-435 cytotoxicity with apoptosis inducers, ATPlite, 24 h. The assay is described as follows: PubChem AID 1774. Conditions: stronger effect = higher value.

Turning to `CSc1nc(-c2ccc(C)cc2)nc(C(Cl)Cl)n1`, the cytotoxicity is -11% (inactive) (at 5 µM); -19% (compound alone 2.5 uM, at 2.5 µM); 30% (plus doxorubicin 50 ug/mL, at 5 µM); 75% (plus doxorubicin 100 ug/mL, at 5 µM); 18% (plus etoposide 50 uM, at 5 µM); 14% (plus etoposide 100 uM, at 5 µM). The cytotoxicity is, setting by setting: (plus thapsigargin 3 uM, at 5 µM) 17%; (plus thapsigargin 10 uM, at 5 µM) -7%; (plus tunicamycin 10 ug/mL, at 5 µM) 10%; (plus tunicamycin 30 ug/mL, at 5 µM) 16%.
